Source: the NIST ThermoML archive (doi:10.1021/je4005323)

Conditions: Liquid; for speed of sound: Pulse-echo method; for mass density: Vibrating tube method

CCCCCCCC/C=C\CCCCCCCC(=O)OC [methyl cis-9-octadecenoate]
Conditions | mass density [kg/m3] | speed of sound [m/s]
283.15 K, 101.3 kPa | – | 1443.2
283.15 K, 10000 kPa | – | 1486.1
283.15 K, 20000 kPa | – | 1526.5
283.15 K, 30000 kPa | – | 1564.5
283.15 K, 40000 kPa | – | 1600.5
283.15 K, 50000 kPa | – | 1634.5
283.15 K, 60000 kPa | – | 1668.6
283.15 K, 70000 kPa | – | 1701
283.15 K, 80000 kPa | – | 1732.7
283.15 K, 90000 kPa | – | 1762.7
283.15 K, 100000 kPa | – | 1790.8
283.15 K, 110000 kPa | – | 1819.3
283.15 K, 120000 kPa | – | 1846
283.15 K, 130000 kPa | – | 1872.5
283.15 K, 140000 kPa | – | 1897.8
283.15 K, 150000 kPa | – | 1923.3
283.15 K, 160000 kPa | – | 1947.8
283.15 K, 170000 kPa | – | 1971.2
283.15 K, 180000 kPa | – | 1994.3
283.15 K, 190000 kPa | – | 2016.8
283.15 K, 200000 kPa | – | 2036.4
293.15 K, 101.3 kPa | 873.8 | –
293.15 K, 10000 kPa | 880 | –
293.15 K, 20000 kPa | 885.3 | –
293.15 K, 30000 kPa | 890.6 | –
293.15 K, 40000 kPa | 895.5 | –
293.15 K, 50000 kPa | 900.1 | –
293.15 K, 60000 kPa | 904.5 | –
293.15 K, 70000 kPa | 908.9 | –
293.15 K, 80000 kPa | 912.6 | –
293.15 K, 90000 kPa | 916.9 | –
293.15 K, 100000 kPa | 920.7 | –
303.15 K, 101.3 kPa | 866.3 | 1370.5
303.15 K, 10000 kPa | 872.8 | 1416.8
303.15 K, 20000 kPa | 878.4 | 1460
303.15 K, 30000 kPa | 883.9 | 1502
303.15 K, 40000 kPa | 888.9 | 1540.9
303.15 K, 50000 kPa | 893.7 | 1578.3
303.15 K, 60000 kPa | 898.3 | 1613.7
303.15 K, 70000 kPa | 902.7 | 1647
303.15 K, 80000 kPa | 906.9 | 1678.8
303.15 K, 90000 kPa | 910.9 | 1709.5
303.15 K, 100000 kPa | 915.4 | 1739.7
303.15 K, 110000 kPa | – | 1768.5
303.15 K, 120000 kPa | – | 1796.4
303.15 K, 130000 kPa | – | 1821.2
303.15 K, 140000 kPa | – | 1848.1
303.15 K, 150000 kPa | – | 1874.2
303.15 K, 160000 kPa | – | 1899
303.15 K, 170000 kPa | – | 1923.1
303.15 K, 180000 kPa | – | 1947
303.15 K, 190000 kPa | – | 1970.3
303.15 K, 200000 kPa | – | 1992.7
313.15 K, 101.3 kPa | 859.6 | –
313.15 K, 10000 kPa | 865.8 | –
313.15 K, 20000 kPa | 871.7 | –
313.15 K, 30000 kPa | 877.5 | –
313.15 K, 40000 kPa | 882.5 | –
313.15 K, 50000 kPa | 887.5 | –
313.15 K, 60000 kPa | 892.2 | –
313.15 K, 70000 kPa | 896.7 | –
313.15 K, 80000 kPa | 901.2 | –
313.15 K, 90000 kPa | 905.2 | –
313.15 K, 100000 kPa | 909.7 | –
323.15 K, 101.3 kPa | 852.4 | 1301.9
323.15 K, 10000 kPa | 858.9 | 1352.1
323.15 K, 20000 kPa | 865.1 | 1397.7
323.15 K, 30000 kPa | 870.9 | 1441.1
323.15 K, 40000 kPa | 876.1 | 1482.3
323.15 K, 50000 kPa | 881.1 | 1521.2
323.15 K, 60000 kPa | 886.2 | 1558.5
323.15 K, 70000 kPa | 891 | 1593.5
323.15 K, 80000 kPa | 895.5 | 1627.2
323.15 K, 90000 kPa | 899.7 | 1659.3
323.15 K, 100000 kPa | 904.1 | 1690.2
323.15 K, 110000 kPa | – | 1719.3
323.15 K, 120000 kPa | – | 1747.7
323.15 K, 130000 kPa | – | 1775.4
323.15 K, 140000 kPa | – | 1801.6
323.15 K, 150000 kPa | – | 1827.1
323.15 K, 160000 kPa | – | 1853
323.15 K, 170000 kPa | – | 1878.4
323.15 K, 180000 kPa | – | 1902.6
323.15 K, 190000 kPa | – | 1925.8
323.15 K, 200000 kPa | – | 1949.2
333.15 K, 101.3 kPa | 844.8 | –
333.15 K, 10000 kPa | 851.7 | –
333.15 K, 20000 kPa | 858.3 | –
333.15 K, 30000 kPa | 864.2 | –
333.15 K, 40000 kPa | 869.7 | –
333.15 K, 50000 kPa | 875 | –
333.15 K, 60000 kPa | 880.1 | –
333.15 K, 70000 kPa | 884.9 | –
333.15 K, 80000 kPa | 889.4 | –
333.15 K, 90000 kPa | 893.9 | –
333.15 K, 100000 kPa | 898.2 | –
343.15 K, 101.3 kPa | 837.8 | 1235.8
343.15 K, 10000 kPa | 845.2 | 1289
343.15 K, 20000 kPa | 851.9 | 1338.1
343.15 K, 30000 kPa | 858.1 | 1383.7
343.15 K, 40000 kPa | 864 | 1426
343.15 K, 50000 kPa | 869.5 | 1466.7
343.15 K, 60000 kPa | 874.6 | 1505.4
343.15 K, 70000 kPa | 879.5 | 1542.2
343.15 K, 80000 kPa | 884.4 | 1575.4
343.15 K, 90000 kPa | 889 | 1609.4
343.15 K, 100000 kPa | 893.4 | 1641.6
343.15 K, 110000 kPa | – | 1672.6
343.15 K, 120000 kPa | – | 1701.9
343.15 K, 130000 kPa | – | 1729.9
343.15 K, 140000 kPa | – | 1757.3
343.15 K, 150000 kPa | – | 1783.8
343.15 K, 160000 kPa | – | 1809.7
343.15 K, 170000 kPa | – | 1834.3
343.15 K, 180000 kPa | – | 1859.7
343.15 K, 190000 kPa | – | 1883.4
343.15 K, 200000 kPa | – | 1905.8
353.15 K, 101.3 kPa | 830.4 | –
353.15 K, 10000 kPa | 838 | –
353.15 K, 20000 kPa | 845.1 | –
353.15 K, 30000 kPa | 851.5 | –
353.15 K, 40000 kPa | 857.5 | –
353.15 K, 50000 kPa | 863.3 | –
353.15 K, 60000 kPa | 868.7 | –
353.15 K, 70000 kPa | 873.8 | –
353.15 K, 80000 kPa | 878.7 | –
353.15 K, 90000 kPa | 883.6 | –
353.15 K, 100000 kPa | 888.2 | –
363.15 K, 101.3 kPa | 823.2 | 1170.9
363.15 K, 10000 kPa | 831.3 | 1228.2
363.15 K, 20000 kPa | 838.7 | 1280.6
363.15 K, 30000 kPa | 845.5 | 1329.3
363.15 K, 40000 kPa | 851.8 | 1374
363.15 K, 50000 kPa | 857.7 | 1414.4
363.15 K, 60000 kPa | 863.1 | 1454.6
363.15 K, 70000 kPa | 868.4 | 1492.2
363.15 K, 80000 kPa | 873.3 | 1527.5
363.15 K, 90000 kPa | 878.1 | 1563.5
363.15 K, 100000 kPa | 882.9 | 1597.2
363.15 K, 110000 kPa | – | 1629.1
363.15 K, 120000 kPa | – | 1659.3
363.15 K, 130000 kPa | – | 1687.5
363.15 K, 140000 kPa | – | 1715.4
363.15 K, 150000 kPa | – | 1741.8
363.15 K, 160000 kPa | – | 1766.9
363.15 K, 170000 kPa | – | 1793.1
363.15 K, 180000 kPa | – | 1817.7
363.15 K, 190000 kPa | – | 1841.2
363.15 K, 200000 kPa | – | 1864.9
373.15 K, 101.3 kPa | 815.8 | –
373.15 K, 10000 kPa | 824.2 | –
373.15 K, 20000 kPa | 832 | –
373.15 K, 30000 kPa | 839.1 | –
373.15 K, 40000 kPa | 845.7 | –
373.15 K, 50000 kPa | 851.8 | –
373.15 K, 60000 kPa | 857.5 | –
373.15 K, 70000 kPa | 862.9 | –
373.15 K, 80000 kPa | 868.2 | –
373.15 K, 90000 kPa | 873 | –
373.15 K, 100000 kPa | 878.1 | –
383.15 K, 101.3 kPa | 808.4 | 1108.9
383.15 K, 10000 kPa | 817.4 | 1170.4
383.15 K, 20000 kPa | 825.5 | 1226.5
383.15 K, 30000 kPa | 832.7 | 1277.8
383.15 K, 40000 kPa | 839.5 | 1324.6
383.15 K, 50000 kPa | 845.9 | 1367.4
383.15 K, 60000 kPa | 851.8 | 1407.7
383.15 K, 70000 kPa | 857.5 | 1446.1
383.15 K, 80000 kPa | 862.8 | 1481.7
383.15 K, 90000 kPa | 867.9 | 1516.9
383.15 K, 100000 kPa | 873.2 | 1550.2
383.15 K, 110000 kPa | – | 1583.4
383.15 K, 120000 kPa | – | 1615.8
383.15 K, 130000 kPa | – | 1645.9
383.15 K, 140000 kPa | – | 1674.2
383.15 K, 150000 kPa | – | 1701.5
383.15 K, 160000 kPa | – | 1729.4
383.15 K, 170000 kPa | – | 1755.3
383.15 K, 180000 kPa | – | 1781.4
383.15 K, 190000 kPa | – | 1805.7
383.15 K, 200000 kPa | – | 1828.3
393.15 K, 101.3 kPa | 800.8 | 1078.5
393.15 K, 10000 kPa | 810.2 | 1142.4
393.15 K, 20000 kPa | 818.5 | 1200
393.15 K, 30000 kPa | 826.2 | 1252
393.15 K, 40000 kPa | 833.2 | 1299.9
393.15 K, 50000 kPa | 839.6 | 1343.8
393.15 K, 60000 kPa | 845.7 | 1384.5
393.15 K, 70000 kPa | 851.7 | 1423.6
393.15 K, 80000 kPa | 857.2 | 1460.2
393.15 K, 90000 kPa | 862.4 | 1495.7
393.15 K, 100000 kPa | 867.6 | 1529.7
393.15 K, 110000 kPa | – | 1562.8
393.15 K, 120000 kPa | – | 1593.9
393.15 K, 130000 kPa | – | 1624.5
393.15 K, 140000 kPa | – | 1654.6
393.15 K, 150000 kPa | – | 1683
393.15 K, 160000 kPa | – | 1710.3
393.15 K, 170000 kPa | – | 1736.2
393.15 K, 180000 kPa | – | 1761.2
393.15 K, 190000 kPa | – | 1785.3
393.15 K, 200000 kPa | – | 1809.7
